The values below come from patent US10710979B2, “EGFR kinase inhibitor and preparation method and use thereof” (ZHEJIANG BOSSAN PHARMACEUTICAL CO. LTD., priority 2015, dated 2020).

Bounds are passed on as bounds.

The test system of assay [1] is human lung cancer cells H1975. Put plainly: Effect of compounds on proliferation of tumor cells (MTT), H1975. It is filed as cell-based. The note with it: for IC50: Homo sapiens, NCI-H1975, H1975 cells, 72 hours, MTT. The protocol:
(§1) Human lung cancer cells H1975, H522, human hepatoma cell HepG2, human melanoma cell A375, human epidermal cancer cell A431, and human colon cancer cells COLO205 were cultivated. The cells were collected when they have grown to logarithmic growth phase, and centrifuged at 1000 rpm for 5 min, from which the supernatant was discarded, and the rest was suspended with appropriate amount of medium, and the concentration of cells was adjusted to 2.5-5.5×10^4/ml (once it was 3.0-5.5×10^4/ml). The cell suspension was inoculated into a 96-well cell culture plate with 100 μl per well, and placed in a cell incubator (37° C., 5% CO2) for 24 hours, and then 100 μl of the drug diluted in the cell culture medium was added to each well of the drug group. Three duplicate wells were set for each drug, and the negative control group was medium containing 0.5% DMSO. After being incubated for 72 hours in the incubator, 20 μl of MTT (5 mg/ml) was added to each well, which was placed under 37° C. for 3 hours. 150 μl of DMSO was added to each well and shaken at 37° C. for 5 mins, and absorbance (OD) was determined at 492 nm. The Prism Graphpad statistical software was used to calculate IC50 values.

Assay [2] deals with human lung cancer cells H522. Kind of assay: Effect of compounds on proliferation of tumor cells (MTT), H522. The format is cell-based. The note with it: NCI-H522, 72 hours. The protocol: as §1
Assay [3] has as its system human hepatoma cell HepG2. Kind of assay: Effect of compounds on proliferation of tumor cells (MTT), HepG2. The format is cell-based. The note with it: 72 hours. The protocol: as §1
Assay [4] has as its system human colon cancer cells COLO205. Put plainly: Effect of compounds on proliferation of tumor cells (MTT), COLO205. It is filed as cell-based. Particulars: COLO 205, 72 hours. The protocol: as §1
The subject of the next assay is human melanoma cell A375. Put plainly: Effect of compounds on proliferation of tumor cells (MTT), A375. It is filed as cell-based. The note with it: A-375, 72 hours. The protocol:
as §1

Assay [5] concerns human epidermal cancer cell A431. Kind of assay: Effect of compounds on proliferation of tumor cells (MTT), A431. It is filed as cell-based. Particulars: A-431, 72 hours. The protocol: as §1
The test system of assay [6] is subcutaneously transplanted lung cancer H1975 tumors. Put plainly: In vivo efficacy in inhibiting human lung cancer H1975 xenograft. Further details: species or system BALB/c nude mice. Particulars: 30.0 mg/kg ig qd × 14 d; for Inhibition rate of tumor IR (tumor weight): tumor weight on day 14 vs negative control. The protocol: The inhibitory effect of ES series compounds to subcutaneously transplanted lung cancer H1975 tumors in nude mice was evaluated.
BALB/c nude mice, female, weighing 17-20 g, purchased from Beijing Weitong Lihua Experimental Animal Technology Co., Ltd. (license number: SCXK (Beijing) 2012-0001). Feeding environment: SPF grade animal room, free feeding, 12 h light/12 h dark.
Under aseptic conditions, H1975 cells in the proliferation stage were taken, whose cell concentration was adjusted after digestion, and seeded at armpit of nude mice with a volume of 0.1 mL. Tumor diameter was measured with vernier caliper, and after the tumor was grown to about 400 mm^3, 30 tumor-bearing mice were selected, which were randomly divided into 5 groups according to the size of the tumors. Each group was dosed according to the set dosing regimen, and the administering day was recorded as D1. The negative control group was given the same amount of vehicle. The longer and shorter diameters of tumor were measured twice a week; meanwhile the body weights of mice were weighed.
The relevant indicators were observed, measured and recorded on the first day of dosing. During the experiment, the tumor size was measured with a vernier caliper to observe the volume change and growth rate of the tumor mass. Tumor-bearing mice were sacrificed at the end of the experiment and the tumor mass was dissected and weighed.
Efficacy evaluation indicators include: relative tumor proliferation rate and weight, general status and other related toxicity indicators. At the end of the experiment, the tumor growth curve and weight change curve were drawn for each group.
The calculation formula of tumor volume (TV) is: TV=1/2×a×b^2, in which a and b respectively represent the longer and shorter diameters of the tumor. The relative tumor volume (RTV) was calculated based on the measured results and the formula was: RTV=Vt/V0, in which V0 is the tumor volume measured before dosing, and Vt is the tumor volume at each measurement after dosing.
The evaluation index of anti-tumor activity is relative tumor proliferation rate T/C (%), and the formula is as follows: […], TRTV: treatment group's RTV; CRTV: negative control group's RTV. T/C (%)≤40% and statistical treatment P<0.05 mean effective. The tumor weight (TW) is lower than that of the negative control group and statistical treatment P<0.05 mean effective. Inhibition rate of tumor IR (%)=(1−TTW/CTW)×100%, TTW: treatment group's TW; CTW: negative control group's TW.
The data was expressed as Mean±SD, and t-tests were used for comparison between groups.

In the case of `C=CC(=O)Nc1cccc(Nc2nc(Nc3ccc(N4CCN(C(C)=O)CC4)cc3OC)ncc2C(F)(F)F)c1` [Compound 1686, reference compound], the IC50 in assay [1] came to 52.5 nM; in assay [2], 522 nM; in assay [3], 1490 nM; in assay [4], 4720 nM; in the assay with human melanoma cell A375, 3000 nM; in assay [5], 1570 nM. Moreover, the “Inhibition rate of tumor IR (tumor weight)” value (shortened to “Inhibition rate of tumor IR”) in assay [6] amounted to 50.09%.
Turning to `C=CC(=O)Nc1cccc(Nc2nc(Nc3ccc(N4CCN(C(C)=O)CC4)nc3OC)ncc2C(F)(F)F)c1` [ES-071], the IC50 in assay [1] came to 22.8 nM; in assay [3] it was 968 nM; in the assay with human melanoma cell A375, 2260 nM; in assay [5], 992 nM. Moreover, the “Inhibitory concentration relative to control compound 1686” value in assay [1] (for most of the tumor cells of Test Example 1) is recorded as “½”. For the same compound, the “Inhibition rate of tumor IR” value in assay [6] is recorded as 50.93%.
Consider `C=CC(=O)Nc1cccc(Nc2nc(Nc3ccc(N4CCN(C)CC4)nc3OC)ncc2C(F)(F)F)c1` [ES-072], for which the IC50 in assay [1] came out at 34.2 nM; in assay [3], 3310 nM; with human melanoma cell A375, 2400 nM; in assay [5], 774 nM. In addition, in assay [6] (after 14 days), the “Volume of subcutaneous tumors / anti-tumor effect” value was “better than that of the positive control group CO-1686”. The “Inhibition rate of tumor IR” value in assay [6] is given as 79.42%.
Take `C=CC(=O)Nc1cccc(Nc2nc(Nc3cnc(N4CCN(C)CC4)cc3OC)ncc2C(F)(F)F)c1` [ES-075]: the IC50 in assay [1] is 36.7 nM; in assay [3], 3540 nM; with human melanoma cell A375 it was 2740 nM; in assay [5], 1270 nM. Moreover, in assay [6], the “Inhibition rate of tumor IR” value is 37.27%.
Regarding `C=CC(=O)Nc1cccc(Nc2nc(Nc3ccc(N(C)C4CCN(C)C4)nc3OC)ncc2C(F)(F)F)c1` (stereo not drawn) [ES-150], the IC50 in assay [1] is 23.2 nM; in assay [2], 1510 nM; in assay [3], 3270 nM; in assay [4], 5150 nM; in the assay on human melanoma cell A375 it was 6220 nM; in assay [5], 2050 nM.
For the compound `C=CC(=O)Nc1cccc(Nc2nc(Nc3ccc(N(C)C4CCN(C(=O)N(C)C)C4)nc3OC)ncc2C(F)(F)F)c1` (stereo not drawn) [ES-151], the IC50 in assay [1] was 132 nM; in assay [2] it was 3130 nM; in assay [3], 4780 nM; in assay [4], 6070 nM; in the assay with human melanoma cell A375 it was 4470 nM; in assay [5] it was 6740 nM.
Consider `C=CC(=O)Nc1cccc(Nc2nc(Nc3ccc(N4CCN(C(C)=O)CC4)nc3)ncc2C(F)(F)F)c1` [ES-157], for which the IC50 in assay [1] was 87.2 nM; in assay [2], 655 nM; in assay [3] it was 1380 nM; in assay [4] it was 1800 nM; in the assay with human melanoma cell A375, 5460 nM; in assay [5], 1810 nM.
`C=CC(=O)Nc1cccc(Nc2nc(Nc3ccc(N4CCN(C(=O)N(C)C)CC4)nc3)ncc2C(F)(F)F)c1` [ES-158]: the IC50 in assay [1] turned out to be 107 nM; in assay [2] it was 735 nM; in assay [3], 3420 nM; in assay [4], 1930 nM; in the assay with human melanoma cell A375, 3760 nM; in assay [5], 1070 nM.
With `C=CC(=O)Nc1cccc(Nc2nc(Nc3cnc(N4CCN(C(=O)OC(C)(C)C)CC4)nc3OC)ncc2C(F)(F)F)c1` [ES-159], the IC50 in assay [1] was found to be 649 nM; in assay [2] it was 3130 nM; in assay [3] it was 2230 nM; in assay [4] it was 1860 nM; in the assay with human melanoma cell A375 it was 49900 nM; in assay [5], 37000 nM.
As for `C=CC(=O)Nc1cccc(Nc2nc(Nc3cnc(N4CCN(C(C)=O)CC4)nc3OC)ncc2C(F)(F)F)c1` [ES-160], the IC50 in assay [1] was 690 nM; in assay [2], 3560 nM; in assay [3], 5790 nM; in assay [4], 5080 nM; with human melanoma cell A375, > 100000 nM; in assay [5], 7210 nM.
`C=CC(=O)Nc1cccc(Nc2nc(Nc3cnc(N4CCN(C)CC4)nc3OC)ncc2C(F)(F)F)c1` [ES-161]: the IC50 came out at 86.8 nM in assay [1]; 2750 nM in assay [2]; 6240 nM in assay [3]; 4140 nM in assay [4]; 7860 nM in the assay on human melanoma cell A375; 2320 nM in assay [5].
`C=CC(=O)Nc1cccc(Nc2nc(Nc3cnc(N4CCN(C(=O)C5COC5)CC4)nc3OC)ncc2C(F)(F)F)c1` [ES-163]: the IC50 stood at 168 nM in assay [1]; 5110 nM in assay [2]; 18900 nM in assay [3]; 5490 nM in assay [4]; 19000 nM in the assay on human melanoma cell A375; 7500 nM in assay [5].
With `C=CC(=O)Nc1cccc(Nc2nc(Nc3cnc(N4CCN(C(=O)N(C)C)CC4)nc3OC)ncc2C(F)(F)F)c1` [ES-164], the IC50 in assay [1] was 74.5 nM; in assay [2], 1390 nM; in assay [3], 12600 nM; in assay [4] it was 6050 nM; with human melanoma cell A375, 18200 nM; in assay [5], 5720 nM.

Broadly, the IC50 is the concentration needed to halve the response being measured. High values mean lower potency, low ones higher potency.
